In patent US20190367448A1, “TREATMENT OF SLEEP-WAKE DISORDERS” (SK Biopharmaceuticals Co., Ltd., priority 2005, published 2019):

Tested on: male adult Sprague Dawley rats
Test: Sleep-wake organization in rats, polysomnographic recording (EEG, EOG, EMG, body movement) for 16 hours after acute i.p. administration
Assay type: in vivo, rat
Settings: for Duration (min) Active wake / Duration (min) Deep sleep / Duration (min) Light sleep / Duration (min) Passive wake / Duration (min) REM sleep / Duration (min) intermediate stage / ISWS/TST (%) / Latency (min) ISWS / Latency (min) REM sleep / Latency (min) dSWS / REMS/TST (%) / Shifts (number) Shift from ISWS to AW / Shifts (number) Shift from ISWS to PW / Shifts (number) Shift from REMS to AW / Shifts (number) Shift from REMS to PW / Shifts (number) Shift from dSWS to AW / Shifts (number) Shift from dSWS to PW / Total sleep time TST / dSWS/TST (%): 16 hours recording period; for change in mean duration of REM sleep stage / change in number of REM sleep epochs / change in number of active wake epochs / change in number of deep sleep epochs / change in number of light sleep epochs / change in total time spent in REM sleep / change in total time spent in active wakefulness / change in total time spent in deep (rebound) sleep / change in total time spent in light sleep / change in mean duration of deep sleep stage: 16 hours recording; for change in total time spent in REM sleep / change in total time spent in active wakefulness / change in total time spent in deep (rebound) sleep / change in total time spent in light sleep: vs vehicle

Question: What does the source list for `CC(N)Cc1ccccc1` (stereo not shown) [Amphetamine, amphetamine]?
Answer: period of enhanced active wakefulness (rats, 1 mg/kg): 3 h; period of reduction in light, deep and REM sleep durations (rats, 1 mg/kg): 3 h; Duration (min) Active wake (rats, 1 mg/kg i.p.): 382.4 min; Duration (min) Deep sleep (rats, 1 mg/kg i.p.): 188.0 min; Duration (min) Light sleep (rats, 1 mg/kg i.p.): 242.7 min; Duration (min) Passive wake (rats, 1 mg/kg i.p.): 50.0 min; Duration (min) REM sleep (rats, 1 mg/kg i.p.): 88.6 min; Duration (min) intermediate stage (rats, 1 mg/kg i.p.): 4.0 min; ISWS/TST (%) (rats, 1 mg/kg i.p.): 45.1 ± 5.3 %; Latency (min) ISWS (rats, 1 mg/kg i.p.): 140.6 ± 13.4 min; Latency (min) REM sleep (rats, 1 mg/kg i.p.): 208.6 ± 14.4 min; Latency (min) dSWS (rats, 1 mg/kg i.p.): 161.7 ± 5.3 min; REMS/TST (%) (rats, 1 mg/kg i.p.): 16.9 ± 0.9%; Shifts (number) Shift from ISWS to AW (rats, 1 mg/kg i.p.): 198.8 number; Shifts (number) Shift from ISWS to PW (rats, 1 mg/kg i.p.): 64.4 number; Shifts (number) Shift from REMS to AW (rats, 1 mg/kg i.p.): 66.5 number; Shifts (number) Shift from REMS to PW (rats, 1 mg/kg i.p.): 5.8 number; Shifts (number) Shift from dSWS to AW (rats, 1 mg/kg i.p.): 11.7 number; Shifts (number) Shift from dSWS to PW (rats, 1 mg/kg i.p.): 37.7 number; Total sleep time TST (rats, 1 mg/kg i.p.): 523.3 ± 25.3 min; dSWS/TST (%) (rats, 1 mg/kg i.p.): 36.6 ± 5.7 %; change in mean duration of REM sleep stage (rats, 1 mg/kg): −16%; change in number of REM sleep epochs (rats, 1 mg/kg): −4%; change in number of active wake epochs (rats, 1 mg/kg): +27%; change in number of deep sleep epochs (rats, 1 mg/kg): +73%; change in number of light sleep epochs (rats, 1 mg/kg): −35%; change in total time spent in REM sleep (rats, 1 mg/kg): −4%; change in total time spent in active wakefulness (rats, 1 mg/kg): +27%; change in total time spent in deep (rebound) sleep (rats, 1 mg/kg): +73%; change in total time spent in light sleep (rats, 1 mg/kg): −35%; period of enhanced active wakefulness (rats, 3 mg/kg): 4 h; period of reduction in light, deep and REM sleep durations (rats, 3 mg/kg): 4 h; Duration (min) Active wake (rats, 3 mg/kg i.p.): 441.8 min; Duration (min) Deep sleep (rats, 3 mg/kg i.p.): 207.6 min; Duration (min) Light sleep (rats, 3 mg/kg i.p.): 187.9 min; Duration (min) Passive wake (rats, 3 mg/kg i.p.): 43.5 min; Duration (min) REM sleep (rats, 3 mg/kg i.p.): 71.4 min; Duration (min) intermediate stage (rats, 3 mg/kg i.p.): 4.0 min; ISWS/TST (%) (rats, 3 mg/kg i.p.): 38.3 ± 3.4 %; Latency (min) ISWS (rats, 3 mg/kg i.p.): 228.2 ± 25.0 min; Latency (min) REM sleep (rats, 3 mg/kg i.p.): 338.6 ± 24.3 min; Latency (min) dSWS (rats, 3 mg/kg i.p.): 242.0 ± 19.4 min; REMS/TST (%) (rats, 3 mg/kg i.p.): 14.7 ± 0.7%; Shifts (number) Shift from ISWS to AW (rats, 3 mg/kg i.p.): 178.7 number; Shifts (number) Shift from ISWS to PW (rats, 3 mg/kg i.p.): 62.4 number; Shifts (number) Shift from REMS to AW (rats, 3 mg/kg i.p.): 59.3 number; Shifts (number) Shift from REMS to PW (rats, 3 mg/kg i.p.): 3.3 number; Shifts (number) Shift from dSWS to AW (rats, 3 mg/kg i.p.): 14.8 number; Shifts (number) Shift from dSWS to PW (rats, 3 mg/kg i.p.): 26.6 number; Total sleep time TST (rats, 3 mg/kg i.p.): 460.9 ± 12.0 min; dSWS/TST (%) (rats, 3 mg/kg i.p.): 46.0 ± 3.0 %; change in mean duration of REM sleep stage (rats, 3 mg/kg): −23%; change in mean duration of deep sleep stage (rats, 3 mg/kg): −19%; change in number of REM sleep epochs (rats, 3 mg/kg): −22%; change in number of active wake epochs (rats, 3 mg/kg): +47%; change in number of deep sleep epochs (rats, 3 mg/kg): +91%; change in number of light sleep epochs (rats, 3 mg/kg): −49%; change in total time spent in REM sleep (rats, 3 mg/kg): −22%; change in total time spent in active wakefulness (rats, 3 mg/kg): +47%; change in total time spent in deep (rebound) sleep (rats, 3 mg/kg): +91%; change in total time spent in light sleep (rats, 3 mg/kg): −49%; period of enhanced active wakefulness (rats, 10 mg/kg): 6 h; period of reduction in light, deep and REM sleep durations (rats, 10 mg/kg): 6 h; Duration (min) Active wake (rats, 10 mg/kg i.p.): 498.7 min; Duration (min) Deep sleep (rats, 10 mg/kg i.p.): 181.2 min; Duration (min) Light sleep (rats, 10 mg/kg i.p.): 182.0 min; Duration (min) Passive wake (rats, 10 mg/kg i.p.): 35.6 min; Duration (min) REM sleep (rats, 10 mg/kg i.p.): 53.6 min; Duration (min) intermediate stage (rats, 10 mg/kg i.p.): 4.0 min; ISWS/TST (%) (rats, 10 mg/kg i.p.): 43.2 ± 5.7 %; Latency (min) ISWS (rats, 10 mg/kg i.p.): 284.7 ± 56.1 min; Latency (min) REM sleep (rats, 10 mg/kg i.p.): 440.8 ± 57.8 min; Latency (min) dSWS (rats, 10 mg/kg i.p.): 367.3 ± 5.5 min; REMS/TST (%) (rats, 10 mg/kg i.p.): 13.0 ± 0.9%; Shifts (number) Shift from ISWS to AW (rats, 10 mg/kg i.p.): 201.7 number; Shifts (number) Shift from ISWS to PW (rats, 10 mg/kg i.p.): 49.0 number; Shifts (number) Shift from REMS to AW (rats, 10 mg/kg i.p.): 50.0 number; Shifts (number) Shift from REMS to PW (rats, 10 mg/kg i.p.): 2.2 number; Shifts (number) Shift from dSWS to AW (rats, 10 mg/kg i.p.): 9.7 number; Shifts (number) Shift from dSWS to PW (rats, 10 mg/kg i.p.): 11.6 number; Total sleep time TST (rats, 10 mg/kg i.p.): 422.9 ± 19.5 min; dSWS/TST (%) (rats, 10 mg/kg i.p.): 42.9 ± 5.3 %; change in mean duration of REM sleep stage (rats, 10 mg/kg): −36%; change in mean duration of deep sleep stage (rats, 10 mg/kg): −30%; change in number of REM sleep epochs (rats, 10 mg/kg): −41%; change in number of active wake epochs (rats, 10 mg/kg): +66%; change in number of deep sleep epochs (rats, 10 mg/kg): +66%; change in number of light sleep epochs (rats, 10 mg/kg): −51%; change in total time spent in REM sleep (rats, 10 mg/kg): −41%; change in total time spent in active wakefulness (rats, 10 mg/kg): +66%; change in total time spent in deep (rebound) sleep (rats, 10 mg/kg): +66%; change in total time spent in light sleep (rats, 10 mg/kg): −51%; latencies of all sleep states (rats, 1, 3, 10 mg/kg): significantly increased; mean duration of light sleep (rats, 1, 3, and 10 mg/kg): not significantly modified; mean duration of active wake (rats, different doses (1, 3, 10 mg/kg)): not modified; period of increased wakefulness and reduced sleep states following administration (rats, dose-dependent, 1, 3, 10 mg/kg): 3 to 8 h; effect on the time spent in deep sleep stage (rats, reduced during 3-6 hours following the injection, then increased (rebound)): biphasic effect
